# pEC50: −log10 of the molar value.
# Experiments:
# Type in all cases: cell-based
# 3R Shaker K channel [1] = molecular target: T1, 3R Shaker K channel (Drosophila melanogaster, UniProt P08510, DEL6-46/M356R/A359R); test: two-electrode voltage clamp in Xenopus oocytes, G(V) shift at […]
# T1 construct: gene Sh
# Shaker K channel (WT) [2] = molecular target: T2, Shaker K channel (WT) (Drosophila melanogaster, UniProt P08510, DEL6-46); test: two-electrode voltage clamp in Xenopus oocytes, G(V) shift and pH dependence at […]
# T2 construct: gene Sh
# T2 sequence (P08510 with tags, fused parts or gaps DEL6-46): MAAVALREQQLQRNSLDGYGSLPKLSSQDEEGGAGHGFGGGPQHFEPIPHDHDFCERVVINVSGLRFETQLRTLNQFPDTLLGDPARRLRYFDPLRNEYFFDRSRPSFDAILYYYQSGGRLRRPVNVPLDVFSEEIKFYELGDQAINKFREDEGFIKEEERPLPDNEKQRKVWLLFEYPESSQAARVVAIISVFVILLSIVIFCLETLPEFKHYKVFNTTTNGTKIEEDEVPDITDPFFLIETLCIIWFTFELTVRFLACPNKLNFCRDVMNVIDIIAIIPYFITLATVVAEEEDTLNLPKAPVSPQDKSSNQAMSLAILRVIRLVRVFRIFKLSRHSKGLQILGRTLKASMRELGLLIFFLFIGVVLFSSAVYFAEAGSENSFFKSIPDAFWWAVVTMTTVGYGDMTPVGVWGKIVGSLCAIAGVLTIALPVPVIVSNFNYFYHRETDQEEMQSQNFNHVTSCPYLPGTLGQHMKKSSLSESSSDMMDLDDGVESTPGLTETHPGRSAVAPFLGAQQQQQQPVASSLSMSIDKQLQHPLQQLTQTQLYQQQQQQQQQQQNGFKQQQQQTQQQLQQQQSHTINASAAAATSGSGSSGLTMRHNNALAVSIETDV
# 3R Shaker K channel [3] = molecular target: T3, 3R Shaker K channel (Drosophila melanogaster, UniProt P08510, A359R/DEL6-46/M356R); test: two-electrode voltage clamp in Xenopus oocytes, G(V) shift; also patch clamp in CHO-K1 cells
# T3 construct: gene Sh
# T3 sequence (P08510 with tags, fused parts or gaps DEL6-46/M356R/A359R): as the sequence (P08510 with tags, fused parts or gaps DEL6-46) above, with M315R, A318R counted along it
# Shaker K channel (WT) [4] = molecular target: T2, Shaker K channel (WT); test: two-electrode voltage clamp in Xenopus oocytes, G(V) shift at […]
# 3R Shaker K channel [5] = molecular target: T3, 3R Shaker K channel; test: two-electrode voltage clamp in Xenopus oocytes, G(V) shift
# T1 sequence (P08510 with tags, fused parts or gaps DEL6-46/M356R/A359R): as the sequence (P08510 with tags, fused parts or gaps DEL6-46) above, with M315R, A318R counted along it
SMILES,"two-electrode voltage clamp in Xenopus oocytes, G(V) shift at 100 μM (3R Shaker K channel [1])",pEC50 (3R Shaker K channel [3]),"two-electrode voltage clamp in Xenopus oocytes, G(V) shift at 100 μM (Shaker K channel (WT) [4])",further results
"C=C[C@@]1(C)CC[C@H]2C(=CC[C@@H]3[C@]2(C)CCC[C@@]3(C)C(=O)O)C1 [compound 2, isopimaric acid]",−15.9 ± 1.8 mV,,,
"C=CCON=C1C[C@H]2[C@](C)(C(=O)O)CCC[C@]2(C)c2ccc(C(C)C)cc21 [compound 19, Compound 19]",−17.8 ± 1.9 mV,,,
"CC(C)C1=CC2=CC[C@@H]3[C@](C)(CCC[C@@]3(C)C(=O)O)[C@H]2CC1 [compound 3, abietic acid]",−11.2 ± 2 mV,,,
"CON=C1C[C@H]2[C@](C)(C(=O)O)CCC[C@]2(C)c2cc(Br)c(C(C)C)cc21 [compound 33, Compound 33]",,4.43,,"two-electrode voltage clamp in Xenopus oocytes, G(V) shift and pH dependence at (Shaker K channel (WT) [2]): For all three compounds, the induced shifts are smaller on Shaker WT compared to Shaker 3R K channels"
"C[C@@]1(C(=O)O)CCC[C@]2(C)c3cc(Cl)c(Cl)c(Cl)c3CC[C@@H]12 [compound 77, Compound 77]",,4.43,−21.2 mV,
"CC(C)c1ccc2c(c1)CC[C@H]1[C@](C)(C(=O)O)CCC[C@]21C [compound 4, dehydroabietic acid]",,,−2.3 mV,pEC50 (3R Shaker K channel [5]): 4.05
